Values after ≈ are worked out from the molar mass of the structure shown. Read-outs that look alike come from different tables or passages of the source.
Columns and labels:
B. fragilis A20928-1 [1] = experiment: Bactericidal activity (MIC & MBC); assay type: cell-based; conditions: Bacteroides fragilis, A209281, inoculum size 2.8 × 10^6 cell/ml
[2] = test system: Fusobacterium mortiferum ATCC 9817; experiment: microbe, parasite or virus in culture; conditions: ATCC9817
[3] = test system: Bacteroides fragilis A20929; experiment: microbe, parasite or virus in culture
[4] = test system: Bacteroides fragilis A20935; experiment: microbe, parasite or virus in culture
Micrococcus flavus = experiment: MIC, serial two-fold agar dilution, aerobic bacteria; assay type: cell-based
[5] = test system: Pseudomonas aeruginosa A9843; experiment: as above; assay type: cell-based; conditions: test medium not given
[6] = test system: Fusobacterium varium ATCC 8501; experiment: microbe, parasite or virus in culture; conditions: ATCC8501
Proteus mirabilis A9554 = experiment: MIC, serial two-fold agar dilution, aerobic bacteria; assay type: cell-based; conditions: Nutrient agar (Eiken)
[7] = test system: aerobic and anaerobic bacteria; experiment: Antibacterial activity and spectrum (in words); assay type: cell-based
[8] = test system: Neisseria meningitidis A21496; experiment: MIC, serial two-fold agar dilution, aerobic bacteria; assay type: cell-based; conditions: GC medium (Eiken)
[9] = test system: Staphylococcus aureus 209P; experiment: as above; assay type: cell-based; conditions: Nutrient agar (Eiken)
[10] = test system: Klebsiella pneumoniae A9678; experiment: as above; assay type: cell-based; conditions: Nutrient agar (Eiken), read-out: MIC
[11] = test system: Serratia marcescens A20019; experiment: as above; assay type: cell-based; conditions: Nutrient agar (Eiken), read-out: MIC
[12] = test system: Escherichia coli K-12 A9632; experiment: as above; conditions: K12A9632
C. perfringens A9635 [13] = experiment: microbe, parasite or virus in culture; assay type: cell-based, Clostridium perfringens
[14] = test system: Escherichia coli Juhl A15119; experiment: MIC, serial two-fold agar dilution, aerobic bacteria; assay type: cell-based; conditions: JUHLA15119
[15] = test system: two anaerobic organisms (B. fragilis and C. perfringens); assay type: cell-based; conditions: broth dilution method
S. pyogenes A20201 = experiment: Systemic infection with S. pyogenes in mice; assay type: in vivo; conditions: just before challenge, determined after 5 days
Sarcina lutea PCI-1001 = experiment: MIC, serial two-fold agar dilution, aerobic bacteria; assay type: cell-based; conditions: Micrococcus luteus, PCI1001; Nutrient agar (Eiken); read-out: MIC
[16] = test system: Veillonella parvula ATCC 17745; experiment: microbe, parasite or virus in culture; conditions: ATCC17745
Stability in solution = assay type: physicochemical
[17] = test system: Staphylococcus aureus #52-34; experiment: MIC, serial two-fold agar dilution, aerobic bacteria; assay type: cell-based
Solubility = assay type: physicochemical
B. fragilis A20928-1 [18] = experiment: Inoculum size effect on MIC, GAM broth; assay type: cell-based; conditions: Bacteroides fragilis
[19] = test system: Diplococcus pneumoniae A9585; experiment: MIC, serial two-fold agar dilution, aerobic bacteria; assay type: cell-based; conditions: Streptococcus pneumoniae, GC medium (Eiken)
[20] = test system: Sphaerophorus pseudonecrophorus A20013; experiment: microbe, parasite or virus in culture; conditions: Fusobacterium necrophorum
[21] = test system: Hemophilus influenzae A9832; experiment: MIC, serial two-fold agar dilution, aerobic bacteria; assay type: cell-based; conditions: Haemophilus influenzae, GC medium (Eiken)
[22] = test system: Bacteroides fragilis A20932; experiment: microbe, parasite or virus in culture
[23] = test system: two anaerobic and one aerobic organisms; experiment: Bactericidal potential (in words); assay type: cell-based
[24] = test system: Bacillus cereus ATCC 10702 A; experiment: MIC, serial two-fold agar dilution, aerobic bacteria; assay type: cell-based; conditions: ATCC10702
C. perfringens A9635 [25] = experiment: microbe, parasite or virus in culture; assay type: cell-based; conditions: Clostridium perfringens
[26] = test system: Neisseria gonorrhoeae A20154; experiment: MIC, serial two-fold agar dilution, aerobic bacteria; assay type: cell-based; conditions: GC medium (Eiken)
[27] = test system: Streptococcus pyogenes A9604; experiment: as above; assay type: cell-based; conditions: GC medium (Eiken)
[28] = test system: Acidoaminococcus fermentans ATCC 25085; experiment: microbe, parasite or virus in culture
[29] = pKa' by titration in aqueous ethanol; assay type: physicochemical; conditions: 50% aqueous ethanol
[30] = test system: Streptococcus pyogenes A20201; experiment: MIC, serial two-fold agar dilution, aerobic bacteria; assay type: cell-based; conditions: GC medium (Eiken)
C. perfringens A9635 [31] = experiment: microbe, parasite or virus in culture; assay type: cell-based; conditions: Clostridium perfringens; remark: listed apart in the source
[32] = test system: Bacteroides fragilis A20930; experiment: microbe, parasite or virus in culture
Proteus morganii A9553 = experiment: MIC, serial two-fold agar dilution, aerobic bacteria; assay type: cell-based; conditions: Morganella morganii, Nutrient agar (Eiken)

Compound COC(=O)C1C(C)OC2(C)CC(=O)C3OC12OC(C(C)/C=C(C)/C=C/C(=O)C1=C(O)CN(C)C1=O)C3C (stereo not shown) [Bu-2313A] has an MIC (B. fragilis A20928-1 [1]; broth) of 0.03 µg/mL (≈ 0.058 µM), an MBC (B. fragilis A20928-1 [1]; growth of less than 100 colonies per plate, 18 hours at 37° C.) greater than 0.8 µg/mL and an MIC [2] of 0.2 µg/mL (≈ 0.386 µM). It also gave an MIC [3] of 0.2 µg/mL (≈ 0.386 µM), an MIC [4] of 0.2 µg/mL (≈ 0.386 µM) and an MIC (Micrococcus flavus) of 6.3 µg/mL (≈ 12.2 µM). It also gave an MIC [5] greater than 100 µg/mL, an MIC [6] of 0.1 µg/mL (≈ 0.193 µM) and an MIC (Proteus mirabilis A9554) greater than 100 µg/mL. The antibacterial activity [7] was “exhibit antibacterial activity against a variety of anaerobic bacteria and some aerobic bacteria”, the “comparative activity and antibacterial spectrum” value ([7]; in vitro) was “very similar to those of tirandamycin” and the MIC [8] was 3.1 µg/mL (≈ 5.99 µM). For the same compound, the MIC [9] was 25 µg/mL (≈ 48.3 µM), the MIC [10] was greater than 100 µg/mL and the MIC [11] was greater than 100 µg/mL. For the same compound, the MIC [12] was greater than 100 µg/mL, the MIC (C. perfringens A9635 [13]; Clostridium perfringens, A9635, read-out: MIC in GAM agar) was 0.1 µg/mL (≈ 0.193 µM) and the “MIC in GAM agar” value (C. perfringens A9635 [13]; inoculum size 7 × 10^6 cell/ml) was 0.1 µg/mL (≈ 0.193 µM). The MIC [14] was greater than 100 µg/mL, the “influence of inoculum size on MIC” value [15] was “greatly affected by inoculum size” and the ED50 (S. pyogenes A20201; Streptococcus pyogenes, A20201, 120 h, sc, read-out: PD50) was 7.6 mg/kg. For the same compound, the PD50 (S. pyogenes A20201; po, NA: no activity) was “NA at 25”, the MIC (Sarcina lutea PCI-1001) was 25 µg/mL (≈ 48.3 µM) and the MIC [16] was 0.2 µg/mL (≈ 0.386 µM). For the same compound, the stability (Stability in solution; acidic solution) was “stable”, the stability (Stability in solution; alkaline solution, N/10 NaOH, room temperature, overnight) was “inactivated” and the MIC [17] was 12.5 µg/mL (≈ 24.2 µM). For the same compound, the solubility (Solubility; hexane and alkaline water) was “slightly soluble”, the solubility (Solubility; most organic solvents such as lower alcohols, ethyl acetate, chloroform and benzene) was “readily soluble” and the solubility (Solubility; water) was “practically insoluble”. The MIC (B. fragilis A20928-1 [18]; A209281, inoculum size […] 10^7 cell/ml, read-out: MIC in GAM broth) was 0.8 µg/mL (≈ 1.55 µM), the MIC (B. fragilis A20928-1 [18]; A209281, read-out: MIC in GAM broth, inoculum size […] 10^6 cell/ml) was 0.06 µg/mL (≈ 0.116 µM) and the LD50 (in vivo; ip, LD50, ip) was 14 mg/kg. It also gave an LD50 (in vivo; po, LD50, po) of 90 mg/kg, an LD50 (in vivo; sc, LD50, sc) of 90 mg/kg and an MIC [19] of 0.8 µg/mL (≈ 1.55 µM). For the same compound, the MIC [20] was 0.2 µg/mL (≈ 0.386 µM), the MIC [21] was 0.8 µg/mL (≈ 1.55 µM) and the MIC [22] was 0.2 µg/mL (≈ 0.386 µM). The antibacterial action [23] was “bacteriostatic rather than bactericidal”, the MIC [24] was 0.8 µg/mL (≈ 1.55 µM) and the MIC (C. perfringens A9635 [25]; A9635) was 0.1 µg/mL (≈ 0.193 µM). It also gave an MBC (C. perfringens A9635 [25]; A9635, 18 h) of 12.5 µg/mL (≈ 24.2 µM), an MIC [26] of 0.8 µg/mL (≈ 1.55 µM) and an MIC [27] of 0.8 µg/mL (≈ 1.55 µM). The MIC [28] was 0.2 µg/mL (≈ 0.386 µM), the pKa [29] was 5.2 and the MIC [30] was 0.8 µg/mL (≈ 1.55 µM). For the same compound, the MIC (C. perfringens A9635 [31]; A9635, read-out: MIC in GAM broth, inoculum size […] 10^5 cell/ml) was 0.1 µg/mL (≈ 0.193 µM), the MIC (C. perfringens A9635 [31]; A9635, read-out: MIC in GAM broth, inoculum size […] 10^6 cell/ml) was 100 µg/mL (≈ 193 µM) and the MIC [32] was 0.2 µg/mL (≈ 0.386 µM). It also gave an MIC (Proteus morganii A9553) greater than 100 µg/mL.

From patent US4169096A, “Antibiotic compounds” (priority 1977, dated 1979)
